Results published in patent US10463644B2, “Uses of sesquiterpene lactone compounds and their derivatives in drugs preparation” (ACCENDATECH, priority 2013, dated 2019).
Read-outs that look alike come from different tables or passages of the source.

What was measured:
[1] = system: IL-1β secreted by synoviocyte; test: Content of IL-1β in culture supernatant of synoviocyte of RA model rats given test compound; assay type: in vivo; conditions: rat RA model, dose 30 mg/kg.2d; normal control 0.16 ± 0.034, NaCl 0.49 ± 0.136
How it was run: (§1)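 Values reflect mediator secretion by synoviocytes taken from arthritic rats dosed at 30 mg/kg.2d. Normal and NaCl groups served as references.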

[2] = system: PGE2 secreted by synoviocyte; test: Content of PGE2 in culture supernatant of synoviocyte of RA model rats given test compound; assay type: in vivo; conditions: rat RA model, dose 30 mg/kg.2d; normal control 8.34 ± 1.29, NaCl 32.44 ± 10.32
How it was run: as §1

cancer stem cells = test: Survival rate of cancer stem cells after test compound is added (flow cytometry, Annexin V-FITC/PI, clinical specimen); assay type: cell-based, patient; conditions: Homo sapiens, 18 h
How it was run: (§2)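 Patient specimens (e.g. AML, CD34+/CD38+ stem-cell marker) separated on Ficoll; mononuclear cells at 1×10^6/mL in serum-free IMDM treated 18 h with compound. Cells stained for stem-cell markers, then Annexin V-FITC/PI, and apoptosis measured by flow cytometry within one hour.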

cancer cells = test: Survival rate of cancer cells after test compound is added (flow cytometry, Annexin V-FITC/PI, clinical specimen); assay type: cell-based, patient; conditions: Homo sapiens, 18 h, read-out: Survival rate (%) All cells (Stem cells and ordinary cells)
How it was run: as §2

normal cells = test: Survival rate of normal cells after test compound is added (flow cytometry, Annexin V-FITC/PI); assay type: cell-based; conditions: 18 h
How it was run: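 Mononuclear cells from fresh or cryopreserved clinical samples, isolated by Ficoll gradient and held in serum-free IMDM (1×10^6/mL), received compound for 18 h. After labelling with marker antibodies (CD34+CD38+ for AML), Annexin V-FITC and PI staining was analysed by flow cytometry.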

[3] = Head and neck squamous cell carcinomas
[4] = read-out: Survival rate (%) All cells (Stem cells and ordinary cells)
[5] = read-out: Survival rate (%) Stem cells

C=C1C(=O)O[C@@H]2[C@@H]3[C@@H](CC[C@@]3(C)O)[C@](C)(O)CC[C@@H]12 [Compound 49]
Content of IL-1β in culture supernatant of synoviocyte (x ± s) [1]: 0.39 ± 0.075 ng/mL
Content of PGE2 in culture supernatant of synoviocyte (x ± s) [2]: 24.25 ± 1.94 ng/mL
viability at 10 µM (cancer stem cells; AML): 85%
viability at 20 µM (cancer stem cells; AML): 77%
viability at 10 µM (cancer stem cells; Brain glioma): 83%
viability at 20 µM (cancer stem cells; Brain glioma): 79%
viability at 10 µM (cancer stem cells; Brain tumor): 83%
viability at 20 µM (cancer stem cells; Brain tumor): 79%
viability at 10 µM (cancer stem cells; Breast cancer): 82%
viability at 20 µM (cancer stem cells; Breast cancer): 79%
viability at 10 µM (cancer stem cells; CLL): 82%
viability at 20 µM (cancer stem cells; CLL): 74%
viability at 10 µM (cancer stem cells; CML): 87%
viability at 20 µM (cancer stem cells; CML): 76%
viability at 10 µM (cancer stem cells; Children hepatoblastoma): 86%
viability at 20 µM (cancer stem cells; Children hepatoblastoma): 78%
viability at 10 µM (cancer stem cells; Colon adenocarcinoma): 85%
viability at 20 µM (cancer stem cells; Colon adenocarcinoma): 79%
viability at 10 µM (cancer stem cells; Colorectal cancer): 82%
viability at 20 µM (cancer stem cells; Colorectal cancer): 74%
viability at 10 µM (cancer stem cells; Gastric cancer): 85%
viability at 20 µM (cancer stem cells; Gastric cancer): 77%
viability at 10 µM (cancer stem cells; Gastrointestinal tumor): 85%
viability at 20 µM (cancer stem cells; Gastrointestinal tumor): 77%
viability at 10 µM (cancer stem cells; Glioma): 82%
viability at 20 µM (cancer stem cells; Glioma): 76%
viability at 10 µM (cancer stem cells; [3]): 82%
viability at 20 µM (cancer stem cells; [3]): 73%
viability at 10 µM (cancer stem cells; Laryngeal cancer): 84%
viability at 20 µM (cancer stem cells; Laryngeal cancer): 78%
viability at 10 µM (cancer stem cells; Liver cancer): 85%
viability at 20 µM (cancer stem cells; Liver cancer): 79%
viability at 10 µM (cancer stem cells; Lung adenocarcinoma): 84%
viability at 20 µM (cancer stem cells; Lung adenocarcinoma): 78%
viability at 10 µM (cancer stem cells; Lung cancer): 79%
viability at 20 µM (cancer stem cells; Lung cancer): 73%
viability at 10 µM (cancer stem cells; Malignant melanoma): 82%
viability at 20 µM (cancer stem cells; Malignant melanoma): 79%
viability at 10 µM (cancer stem cells; Nasopharynx cancer): 84%
viability at 20 µM (cancer stem cells; Nasopharynx cancer): 77%
viability at 10 µM (cancer stem cells; Ovarian cancer): 86%
viability at 20 µM (cancer stem cells; Ovarian cancer): 76%
viability at 10 µM (cancer stem cells; Pancreatic cancer): 81%
viability at 20 µM (cancer stem cells; Pancreatic cancer): 75%
viability at 10 µM (cancer stem cells; Prostate cancer): 85%
viability at 20 µM (cancer stem cells; Prostate cancer): 77%
viability at 10 µM (cancer stem cells; Retinoblastoma): 85%
viability at 20 µM (cancer stem cells; Retinoblastoma): 77%
viability at 10 µM (cancer stem cells; Skin cancer): 85%
viability at 20 µM (cancer stem cells; Skin cancer): 79%
viability at 10 µM (cancer cells; AML): 92%
viability at 20 µM (cancer cells; AML): 89%
viability at 10 µM (cancer cells; Brain glioma): 88%
viability at 20 µM (cancer cells; Brain glioma): 87%
viability at 10 µM (cancer cells; Brain tumor): 88%
viability at 20 µM (cancer cells; Brain tumor): 87%
viability at 10 µM (cancer cells; Breast cancer): 89%
viability at 20 µM (cancer cells; Breast cancer): 87%
viability at 10 µM (cancer cells; CLL): 91%
viability at 20 µM (cancer cells; CLL): 85%
viability at 10 µM (cancer cells; CML): 90%
viability at 20 µM (cancer cells; CML): 86%
viability at 10 µM (cancer cells; Children hepatoblastoma): 93%
viability at 20 µM (cancer cells; Children hepatoblastoma): 92%
viability at 10 µM (cancer cells; Colon adenocarcinoma): 93%
viability at 20 µM (cancer cells; Colon adenocarcinoma): 86%
viability at 10 µM (cancer cells; Colorectal cancer): 88%
viability at 20 µM (cancer cells; Colorectal cancer): 85%
viability at 10 µM (cancer cells; Gastric cancer): 92%
viability at 20 µM (cancer cells; Gastric cancer): 89%
viability at 10 µM (cancer cells; Gastrointestinal tumor): 92%
viability at 20 µM (cancer cells; Gastrointestinal tumor): 89%
viability at 10 µM (cancer cells; Glioma): 88%
viability at 20 µM (cancer cells; Glioma): 89%
viability at 10 µM (cancer cells; [3]): 91%
viability at 20 µM (cancer cells; [3]): 87%
viability at 10 µM (cancer cells; Laryngeal cancer): 91%
viability at 20 µM (cancer cells; Laryngeal cancer): 88%
viability at 10 µM (cancer cells; Liver cancer): 93%
viability at 20 µM (cancer cells; Liver cancer): 86%
viability at 10 µM (cancer cells; Lung adenocarcinoma): 91%
viability at 20 µM (cancer cells; Lung adenocarcinoma): 88%
viability at 10 µM (cancer cells; Lung cancer): 88%
viability at 20 µM (cancer cells; Lung cancer): 82%
viability at 10 µM (cancer cells; Malignant melanoma): 88%
viability at 20 µM (cancer cells; Malignant melanoma): 87%
viability at 10 µM (cancer cells; Nasopharynx cancer): 93%
viability at 20 µM (cancer cells; Nasopharynx cancer): 86%
viability at 10 µM (cancer cells; Ovarian cancer): 93%
viability at 20 µM (cancer cells; Ovarian cancer): 88%
viability at 10 µM (cancer cells; Pancreatic cancer): 87%
viability at 20 µM (cancer cells; Pancreatic cancer): 83%
viability at 10 µM (cancer cells; Prostate cancer): 92%
viability at 20 µM (cancer cells; Prostate cancer): 89%
viability at 10 µM (cancer cells; Retinoblastoma): 92%
viability at 20 µM (cancer cells; Retinoblastoma): 89%
viability at 10 µM (cancer cells; Skin cancer): 93%
viability at 20 µM (cancer cells; Skin cancer): 86%
viability at 10 µM (normal cells; [4]): 96%
viability at 10 µM (normal cells; [5]): 94%
viability at 20 µM (normal cells; [4]): 95%
viability at 20 µM (normal cells; [5]): 92%
